Where “and” joins values, the source holds several entries; their conditions need not be identical. Identical values can stand only once. Toxic doses and inconclusive results are not listed. Rule as the data show it: active = T/C of 150% or more; inactive = T/C below 125%.
Test system: L1210 leukemia ip in BDF1 mice, survival T/C
Test: NCI In Vivo Anticancer Drug Screen. Data for tumor model L1210 Leukemia (intraperitoneal) in B6D2F1 (BDF1) mice
Settings: endpoint: mean survival time, higher = longer survival
How it was run: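 Tumor cells were implanted, animals were treated, and survival was followed. The result divides the treated measurement by the vehicle-control measurement.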

[1] = dose: 100.0 mg/kg/injection, schedule: Q01DX009 (ip), vehicle: saline
[2] = dose: 100.0 mg/kg/injection, schedule: Q04DX003 (ip), vehicle: saline
[3] = dose: 200.0 mg/kg/injection, schedule: Q01DX009 (ip), vehicle: saline
[4] = dose: 200.0 mg/kg/injection, schedule: Q04DX003 (ip), vehicle: saline
[5] = dose: 400.0 mg/kg/injection, schedule: Q04DX003 (ip), vehicle: saline
[6] = dose: 100.0 mg/kg/injection, schedule: Q01DX001 (ip), vehicle: saline
[7] = dose: 200.0 mg/kg/injection, schedule: Q01DX001 (ip), vehicle: saline
[8] = dose: 400.0 mg/kg/injection, schedule: Q01DX001 (ip), vehicle: saline
[9] = dose: 100.0 mg/kg/injection, schedule: Q01DX001 (ip), vehicle: carboxymethylcellulose (CMC)
[10] = dose: 200.0 mg/kg/injection, schedule: Q01DX001 (ip), vehicle: carboxymethylcellulose (CMC)
[11] = dose: 400.0 mg/kg/injection, schedule: Q01DX001 (ip), vehicle: carboxymethylcellulose (CMC)
[12] = dose: 50.0 mg/kg/injection, schedule: Q01DX009 (ip), vehicle: saline with Tween-80
[13] = dose: 100.0 mg/kg/injection, schedule: Q01DX009 (ip), vehicle: saline with Tween-80
[14] = dose: 200.0 mg/kg/injection, schedule: Q01DX009 (ip), vehicle: saline with Tween-80
[15] = dose: 100.0 mg/kg/injection, schedule: Q01DX001 (ip), vehicle: saline with Tween-80
[16] = dose: 200.0 mg/kg/injection, schedule: Q01DX001 (ip), vehicle: saline with Tween-80
[17] = dose: 400.0 mg/kg/injection, schedule: Q01DX001 (ip), vehicle: saline with Tween-80
[18] = dose: 100.0 mg/kg/injection, schedule: Q04DX003 (ip), vehicle: saline with Tween-80
[19] = dose: 400.0 mg/kg/injection, schedule: Q04DX003 (ip), vehicle: saline with Tween-80
[20] = dose: 100.0 mg/kg/injection, schedule: Q01DX009 (ip), vehicle: Klucel (hydroxypropylcellulose) (HPC)
[21] = dose: 100.0 mg/kg/injection, schedule: Q04DX003 (ip), vehicle: Klucel (hydroxypropylcellulose) (HPC)
[22] = dose: 100.0 mg/kg/injection, schedule: Q04DX002 (ip), vehicle: saline
[23] = dose: 200.0 mg/kg/injection, schedule: Q04DX003 (ip), vehicle: saline with Tween-80
[24] = dose: 400.0 mg/kg/injection, schedule: Q01DX009 (ip), vehicle: saline with Tween-80

Measured: T/C

O=C(CCl)N1c2ccccc2Oc2cc3ccccc3cc21
inactive: [1] 100 % of control | [2] 95 % of control | [3] 90 % of control | [4] 101 % of control | dose: 400.0 mg/kg/injection, schedule: Q01DX009 (ip), vehicle: saline 92 % of control | [5] 92 % of control

CCCCOC(=O)CCCCC(=O)OC(C)C(=O)OCCCC (stereo not drawn)
inactive: [6] 102 % of control | [7] 102 % of control | [8] 89 % of control

Nc1cc2c(cc1Cl)-c1ccc([N+](=O)[O-])cc1/C2=N\O
inactive: [9] 104 % of control | [10] 116 % of control | [11] 104 % of control

N#CC(Nc1ccccc1)c1ccc(Cl)cc1 (stereo not drawn)
inactive: [12] 101 % of control | [13] 97 % of control | [14] 94 % of control

CCOC(=O)c1c[nH]c2cc(OCC(C)C)c(OCC(C)C)cc2c1=O
inactive: [15] 104 % of control | [16] 100 % of control | [17] 86 % of control

COc1cc2c(cc1OC)CN1CCc3cc(OC)c(OC)cc3C1C2 (stereo not drawn)
inactive: [12] 93 % of control | dose: 75.0 mg/kg/injection, schedule: Q01DX001 (ip), vehicle: saline 100 % of control | [13] 93 % of control | dose: 150.0 mg/kg/injection, schedule: Q01DX001 (ip), vehicle: saline 100 % of control | [14] 93 % of control | dose: 300.0 mg/kg/injection, schedule: Q01DX001 (ip), vehicle: saline 101 % of control

c1ccc(C2OC3(CCCCC3)C[N+]23CCCC3)cc1 (stereo not drawn)
inactive: dose: 25.0 mg/kg/injection, schedule: Q01DX009 (ip), vehicle: saline with Tween-80 109 % of control | [12] 107 % of control | [18] 97 % of control

c1ccc2c(c1)C1C3CCC(C3)C21 (stereo not drawn)
inactive: [18] 98 % of control | [19] 98 % of control

C(=C/[PH+](c1ccccc1)c1ccccc1)/[PH+](c1ccccc1)c1ccccc1.C(=C/[PH+](c1ccccc1)c1ccccc1)/[PH+](c1ccccc1)c1ccccc1.[O-][Cl+3]([O-])([O-])O.[Rh]
inactive: [15] 92 % of control | [17] 89 % of control

CC(=O)Nc1ccc2ccc3ccccc3c2c1
inactive: [20] 94 % of control | [21] 98 % of control | dose: 200.0 mg/kg/injection, schedule: Q01DX009 (ip), vehicle: Klucel (hydroxypropylcellulose) (HPC) 95 % of control | dose: 200.0 mg/kg/injection, schedule: Q04DX003 (ip), vehicle: Klucel (hydroxypropylcellulose) (HPC) 98 % of control | dose: 400.0 mg/kg/injection, schedule: Q01DX009 (ip), vehicle: Klucel (hydroxypropylcellulose) (HPC) 92 % of control | dose: 400.0 mg/kg/injection, schedule: Q04DX003 (ip), vehicle: Klucel (hydroxypropylcellulose) (HPC) 94 % of control

O=CO.[Pb]
inactive: [6] 90 % of control | [7] 92 % of control | [8] 98 % of control

O=c1nc2n(CCO)c3ccccc3nc-2c(=O)[nH]1
inactive: dose: 25.0 mg/kg/injection, schedule: Q04DX002 (ip), vehicle: saline 100 % of control | dose: 50.0 mg/kg/injection, schedule: Q04DX002 (ip), vehicle: saline 106 % of control | [22] 95 % of control

O=S(=O)(c1ccccc1)C1CC1(c1ccccc1)c1ccccc1 (stereo not drawn)
inactive: [6] 92 % of control | [7] 93 % of control | [8] 90 % of control

O=c1[nH]cnc2c1ncn2CCCCCCl
inactive: [21] 102 % of control

Cc1ccc(CN=C(N)CSS(=O)(=O)O)cc1C
inactive: dose: 100.0 mg/kg/injection, schedule: Q04DX002 (ip), vehicle: Klucel (hydroxypropylcellulose) (HPC) 97 % of control | dose: 200.0 mg/kg/injection, schedule: Q04DX002 (ip), vehicle: Klucel (hydroxypropylcellulose) (HPC) 101 % of control

COC(=O)c1cc(C(=O)OC(C)(C)C)c(-c2ccc(OC)c(OC)c2)c2cc(OC)c(OC)cc12
inactive: [6] 100 % of control | [7] 101 % of control | [8] 103 % of control

CC(CCl)(CCl)CCl
inactive: dose: 50.0 mg/kg/injection, schedule: Q01DX009 (ip), vehicle: saline sonified 96 % of control | dose: 100.0 mg/kg/injection, schedule: Q01DX001 (ip), vehicle: saline sonified 99 % of control | dose: 100.0 mg/kg/injection, schedule: Q01DX009 (ip), vehicle: saline sonified 106 % of control | dose: 200.0 mg/kg/injection, schedule: Q01DX001 (ip), vehicle: saline sonified 96 % of control | dose: 200.0 mg/kg/injection, schedule: Q01DX009 (ip), vehicle: saline sonified 94 % of control

COc1ccc(OC)c(NC(=O)c2ccc(Cl)c(Cl)c2)c1
inactive: [15] 106 % of control | [13] 93 % of control and 98 % of control | dose: 100.0 mg/kg/injection, schedule: Q04DX002 (ip), vehicle: saline with Tween-80 97 % of control and 99 % of control | [18] 105 % of control | [16] 101 % of control | [14] 97 % of control and 102 % of control | dose: 200.0 mg/kg/injection, schedule: Q04DX002 (ip), vehicle: saline with Tween-80 108 % of control and 89 % of control | [23] 108 % of control | [17] 108 % of control | [24] 111 % of control | dose: 400.0 mg/kg/injection, schedule: Q04DX002 (ip), vehicle: saline with Tween-80 104 % of control and 91 % of control | [19] 89 % of control

Cc1ccc(NC(=O)NCC2(C)CC(NC(=O)Nc3ccc(C)cc3)CC(C)(C)C2)cc1 (stereo not drawn)
inactive: [12] 87 % of control | [18] 91 % of control | [23] 91 % of control

C/C=C/Cn1cnc2c1c(=O)n(C)c(=O)n2C
inactive: [18] 95 % of control | [23] 95 % of control

O=P(O)(O)CCC(O)CO (stereo not drawn)
inactive: [22] 94 % of control | dose: 200.0 mg/kg/injection, schedule: Q04DX002 (ip), vehicle: saline 97 % of control | dose: 400.0 mg/kg/injection, schedule: Q04DX002 (ip), vehicle: saline 102 % of control

CCN(CC)Cc1cc(N)ccc1O
inactive: [1] 106 % of control | [3] 89 % of control

O=C(O)c1cccc(O)c1[N+](=O)[O-]
inactive: [2] 97 % of control | [4] 95 % of control | [5] 97 % of control

CCCCCN(CCCCC)CC(O)c1cc2c(c3ccccc13)CCCC2 (stereo not drawn)
inactive: dose: 25.0 mg/kg/injection, schedule: Q01DX009 (ip), vehicle: Klucel (hydroxypropylcellulose) (HPC) 87 % of control | dose: 50.0 mg/kg/injection, schedule: Q01DX009 (ip), vehicle: Klucel (hydroxypropylcellulose) (HPC) 93 % of control | [20] 90 % of control

O=c1c(=O)c2ccccc2c(=O)/c1=N/Nc1ccccc1
inactive: dose: 100.0 mg/kg/injection, schedule: Q01DX001 (ip), vehicle: water 98 % of control | dose: 200.0 mg/kg/injection, schedule: Q01DX001 (ip), vehicle: water 95 % of control | dose: 400.0 mg/kg/injection, schedule: Q01DX001 (ip), vehicle: water 97 % of control

CC(Sc1ccc([N+](=O)[O-])cn1)C(=O)O (stereo not drawn)
inactive: dose: 50.0 mg/kg/injection, schedule: Q01DX001 (ip), vehicle: carboxymethylcellulose (CMC) 107 % of control | [9] 101 % of control | [10] 101 % of control | [11] 109 % of control

Cc1ccc([N+](=O)[O-])cc1NC(=O)NCc1ccc(Cl)cc1
inactive: [13] 87 % of control | [14] 106 % of control | [24] 95 % of control

CCCCCC=C(c1ccccc1)c1ccccc1
inactive: [15] 92 % of control | [16] 104 % of control | [17] 95 % of control
